Assay results as given in patent US20190062371A1, “PEPTIDE COMPOSITIONS AND RELATED METHODS” (Allegro Pharmaceuticals, Inc., priority 2017, published 2019).

System: ischemia-induced retinal neovascularization
Assay: Mouse model of retinopathy of prematurity (ROP), ischemia-induced retinal neovascularization
Format: in vivo, C57Bl/6 mice
Conditions: for Activity At Dose Tested: intravitreal 20 micrograms, P17; for Mean % Reduction of Retinal Neovascularization In ROP Model: intravitreal injection of 1.0 microliters containing 20 micrograms of Test Compound at P12, neovascular area at P17 (Taurine solutions 3.0 mg/100 μL)
Description: Each test compound was prepared in sterile water for injection, containing 0.08 mg/100 μL of sodium chloride and 0.005 mg/100 μL of trisodium citrate, the concentration of the peptide was at a concentration of […] and pH=2.7 and dispensed by sterile filtration into sterile vials. The Taurine test compound was obtained from Sigma Aldrich company, which was >99% pure, and prepared the same way as mentioned previously, having a concentration of 3.0 mg/100 μL. The R-G-Cys(acid) at 2.0 mg/100 μL+Taurine at 3.0 mg/100 μL were prepared the same way as mentioned above
To screen the test compounds for activity against ischemia-induced retinal neovascularization, the well-established model of retinopathy of prematurity (ROP) in mice was used. Litters of C57Bl/6 mice were placed in 75% oxygen at postnatal day (P) 7, returned to room air at day (P) 12. The Pups were randomly assigned to treatment groups of 4 to 10 animals per group. The pups were treated as follows: Treatment eyes were treated by intravitreal injection of 1.0 microliters of solution containing 20 micrograms of Test Compound.
On post-natal day 17, 5 days after intravitreal injection, the animals were sacrificed, the retinas were flat mounted and the area of neovascularization in each retina was determined by Fluorescein-dextran image analysis.
Applicant has identified the tripeptide R-G-Cysteic(Acid) as an integrin binding motif of the oligopeptide Glycinyl-Arginyl-Glycinyl-Cysteic(Acid)-Threonyl-Proline (ALG-1001 or Luminate®, Allegro Ophthalmics, LLC). The trifluoroacetate (TFA) and acetate salts of the R-G-Cysteic(Acid) tripeptide (Test Compound Nos. 1 and 2) were tested in both the ROP Mouse Model as described above as well as in a mouse model of choroidal neovascularization induced by laser photocoagulation (“CNV Mouse Model”), as generally as described in Lambert, V., et al., Laser-Induced Choroidal Neovascarization Model to Study Age Related Macular Degeneration in Mice, Nature Protocols, 8; 2197-2211 (2013). […] In some of the experiments, an additional “Positive Control” group was included.
The following Table 1 summarizes the neovascularization inhibiting effect of each Test Compound at the dose tested. In each instance, the data was obtained using the ROP Mouse Model, except for the two table entries specifically labeled “CNV”. Only those table entries labeled “CNV” show data obtained from the CNV Mouse Model. Bar graphs showing the test results summarized in Table 1 are also provided herewith as FIGS. 1 through 27.

Question: For `NCCS(=O)(=O)O` [Test Compound 25, Taurine, reference compound], which “Activity At Dose Tested” value is on record?
Answer: Slightly Active

Question: What about the “Mean % Reduction of Retinal Neovascularization In ROP Model” value (shortened to “Mean % Reduction”) of the same molecule?
Answer: 33%

Question: How did the “Activity At Dose Tested” value turn out when “Cyclo-{R-G-Cys(acid)-F—N—Me—V} Acetate [Test Compound 12]” was run?
Answer: Active

Question: What about the “Mean % Reduction” value of the same molecule?
Answer: 57%

Question: What does the source list for “Cyclo-{R-G-D-D-F—NMe—V}•TFA [Test Compound 13]”?
Answer: Activity At Dose Tested: Active; Mean % Reduction of Retinal Neovascularization In ROP Model: 75%

Question: R-A-Cys (acid)•TFA [Test Compound 3] was tested. Which “Activity At Dose Tested” value did it give?
Answer: Active

Question: And the “Mean % Reduction” value?
Answer: 60%

Question: What does the source list for R-D-G•TFA [Test Compound 18]?
Answer: Activity At Dose Tested: Active; Mean % Reduction of Retinal Neovascularization In ROP Model: 44%

Question: For “R-G-Cys(acid)-G-G-GD-G•TFA [Test Compound 7]”, which “Activity At Dose Tested” value is on record?
Answer: Active

Question: And the “Mean % Reduction” value?
Answer: 62%
